The values that follow are results of earlier work, collected in patent US11918665B2, “Method for dyeing keratinous material, comprising the use of an organosilicon compound, a colored effect pigment and a sealing reagent I” (Henkel AG & Co. KGaA, priority 2019, dated 2024).

The structures appear in SMILES notation.

For this data set the following is noted: 25° C.

In the case of `O=C([O-])c1c(Cl)c(Cl)c(Cl)c(Cl)c1-c1c2c(Br)cc(=O)c(Br)c-2oc2c(Br)c(O)cc(Br)c12.O=C([O-])c1c(Cl)c(Cl)c(Cl)c(Cl)c1-c1c2c(Br)cc(=O)c(Br)c-2oc2c(Br)c(O)cc(Br)c12.[Na+].[Na+]` [Acid Red 92, disodium salt of 3,4,5,6-tetrachloro-2-(1,4,5,8-tetrabromo-6-hydroxy-3-oxoxanthen-9-yl)benzoic acid], the solubility in water result is “greater than 10 g/L”.

In the case of `O=S(=O)([O-])c1ccc(N=Nc2c(O)ccc3ccccc23)cc1.[Na+]` [Acid Orange 7, sodium salt of 4-[(2-hydroxy-1-naphthyl)azo]benzene sulphonate], the solubility in water entry is listed as “more than 7 g/L”. With `Nc1cc(S(=O)(=O)[O-])cc2cc(S(=O)(=O)[O-])c(N=Nc3ccccc3)c(O)c12.[Na+].[Na+]` [Acid Red 33, disodium salt of 5-amino-4-hydroxy-3-(phenylazo)-naphthalene-2,7-disulphonate], the solubility in water was 2.5 g/L. As to `O=C([O-])C1=NN(c2ccc(S(=O)(=O)[O-])cc2)C(=O)C1N=Nc1ccc(S(=O)(=O)[O-])cc1.[Na+].[Na+].[Na+]` (stereo not shown) [Acid Yellow 23, trisodium salt of 4,5-dihydro-5-oxo-1-(4-sulfophenyl)-4-((4-sulfophenyl)azo)-1H-pyrazole-3-carboxylic acid], the “solubility in water (in words)” value is recorded as “highly soluble in water”.
